Source: paper PMC7383931, “Novel Thienopyrimidine Inhibitors of Leishmania N-Myristoyltransferase with On-Target Activity in Intracellular Amastigotes” (Journal of Medicinal Chemistry, 2020)
Several values for one entry are separate records, joined by “and”; a condition that tells them apart may be missing. Equal values may be shown once. Read-outs that look alike come from different tables or passages of the source.

Tests used:
[1] = system: bone-marrow-derived macrophages (BMDM); test: Alamar blue-based assay, macrophage toxicity; assay type: cell-based, BALB/c mice; conditions: for BMDM TC50: toxicity against bone marrow derived macrophages; for Alamar Blue Assay nAUC: toxicity against bone-marrow-derived macrophages, normalized area under the curve
Description: . Due to the steep slope of the toxicity profile and the correspondingly low accuracy of the CC50 values, the normalized area under the curve (nAUC) was used as the toxicity parameter (Figure 6A). […].
Macrophages (BMDM) were differentiated from the bone marrow of 6–8 week old female BALB/c mice, as described previously,[37] and maintained at 37 °C and 5% CO2 in DMEM (GIBCO) supplemented with 4 mM L-glutamine (GIBCO) and 4% L929-cell-conditioned medium. BMDMs were seeded at 4.2 × 10^4 cells per well in 96-well plates and adhered for at least 4 h. Subsequently, inhibitor concentrations were added for 72 h, followed by the addition of a 1/10 volume Alamar blue (Trek Diagnostics). Fluorescence was measured after 6 h as described above.

[2] = system: NMT (protein myristoylation) in L. donovani amastigotes; assay type: cell-based; conditions: in-gel fluorescence, varying inhibitor concentrations
LdNMT = LdNMT (Leishmania donovani, UniProt D0AB09); test: biochemical; conditions: 95% confidence interval in brackets
LmNMT = target: T1, LmNMT (Leishmania major, UniProt Q4Q5S8); test: CPM assay (fluorogenic NMT activity assay), LmNMT; assay type: biochemical; conditions: 95% confidence interval in brackets; read-out: CPM Assay, IC50 (CI95) LmNMT
T1 sequence (Q4Q5S8 1-421): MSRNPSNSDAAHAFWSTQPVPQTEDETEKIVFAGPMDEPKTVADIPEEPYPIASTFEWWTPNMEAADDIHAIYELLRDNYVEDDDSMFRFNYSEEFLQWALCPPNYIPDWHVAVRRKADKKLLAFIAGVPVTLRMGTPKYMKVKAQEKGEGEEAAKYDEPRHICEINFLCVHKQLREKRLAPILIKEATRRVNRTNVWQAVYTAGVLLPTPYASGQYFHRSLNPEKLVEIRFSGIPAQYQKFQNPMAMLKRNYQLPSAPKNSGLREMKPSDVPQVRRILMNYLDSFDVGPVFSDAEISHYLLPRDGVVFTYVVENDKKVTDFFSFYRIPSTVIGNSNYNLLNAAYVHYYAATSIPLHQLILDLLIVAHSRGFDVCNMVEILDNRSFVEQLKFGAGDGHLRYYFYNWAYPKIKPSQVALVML

[3] = system: intracellular amastigotes; design: method as in PMID 30380837; conditions: cited from earlier work
HsNMTs = system: HsNMTs; design: method as in PMID 30380837; conditions: versus Leishmania major (Lm) NMT; cited from earlier work
L. donovani amastigotes = test: Alamar blue-based assay, L. donovani amastigotes; assay type: cell-based; conditions: Leishmania donovani

Sequence of LdNMT (D0AB09 entry or part of it): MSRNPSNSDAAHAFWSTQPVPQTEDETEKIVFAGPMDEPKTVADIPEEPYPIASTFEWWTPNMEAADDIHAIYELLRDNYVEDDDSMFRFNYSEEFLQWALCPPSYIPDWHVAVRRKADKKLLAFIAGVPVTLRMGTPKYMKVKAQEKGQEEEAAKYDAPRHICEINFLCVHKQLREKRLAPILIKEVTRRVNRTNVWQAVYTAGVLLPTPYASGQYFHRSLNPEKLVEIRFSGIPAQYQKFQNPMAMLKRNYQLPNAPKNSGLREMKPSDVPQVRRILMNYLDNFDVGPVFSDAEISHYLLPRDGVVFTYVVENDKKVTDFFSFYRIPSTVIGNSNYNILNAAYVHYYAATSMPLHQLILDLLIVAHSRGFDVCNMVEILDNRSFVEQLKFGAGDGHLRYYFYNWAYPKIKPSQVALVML

SMILES | BMDM TC50 [1] | Alamar Blue Assay nAUC [1] | other results
CN(C)CCCN(C)c1nc(N(C)CCC(N)=O)c2sccc2n1 [Compound 36] | >50 µM | – | –
COC[C@@H]1CCCN1c1nc(N(C)C2CCN(C)CC2)nc2ccsc12 [Compound 40, (S)-4-(2-(Methoxymethyl)pyrrolidin-1-yl)-N-methyl-N-(1-methylpiperidin-4-yl)thieno[3,2-d]pyrimidin-2-amine] | >40 µM | 1.06 | –
CN1CCC(N(C)c2nc(N3CCC[C@H]3CC#N)c3sccc3n2)CC1 [Compound 43, (S)-2-(1-(2-(Methyl(1-methylpiperidin-4-yl)amino)thieno[3,2-d]pyrimidin-4-yl)pyrrolidin-2-yl)acetonitrile] | >50 µM | 1.08 | –
CN1CCC(N(C)c2nc(N(C)CCC#N)c3sccc3n2)CC1 [Compound 1, 3-(Methyl(2-(methyl(1-methylpiperidin-4-yl)amino)thieno[3,2-d]pyrimidin-4-yl)amino)propanenitrile] | >100 µM | 1.07 | effect on myristoylation [2]: significantly decreased myristoylation in a dose-dependent manner
CCN1CCC(N(C)c2nc(N(C)CCC#N)c3ccccc3n2)CC1 [Compound 24, 3-((2-((1-Ethylpiperidin-4-yl)(methyl)amino)quinazolin-4-yl)(methyl)amino)propanenitrile] | >50 µM | – | –
CCN(C)c1nc(N(C)C2CCNCC2)nc2ccsc12 [Compound 47, N^4-Ethyl-N^2,N^4-dimethyl-N^2-(piperidin-4-yl)thieno[3,2-d]pyrimidine-2,4-diamine] | >50 µM | – | –
CN(CCC#N)c1nc(N(C)C2CCNCC2)nc2ccccc12 [Compound 23, 3-(Methyl(2-(methyl(piperidin-4-yl)amino)quinazolin-4-yl)amino)propanenitrile] | >50 µM | – | –
CN(C)CCCN(C)c1nc(N(C)CCC#N)c2ccccc2n1 [Compound 4, 3-((2-((3-(Dimethylamino)propyl)(methyl)amino)quinazolin-4-yl)(methyl)amino)propanenitrile] | >100 µM | 1.17 | –
CN(C)CCCN(C)c1nc(N2CCC[C@H]2CO)c2sccc2n1 [Compound 39, (S)-(1-(2-((3-(Dimethylamino)propyl)(methyl)amino)thieno[3,2-d]pyrimidin-4-yl)pyrrolidin-2-yl)methanol] | >50 µM | 1.14 | –
CCN(C)c1nc(N(C)C2CCNCC2)nc2ccc(S(=O)(=O)Nc3c(C)nn(C)c3C)cc12 [Compound 65, 4-(Ethyl(methyl)amino)-2-(methyl(piperidin-4-yl)amino)-N-(1,3,5-trimethyl-1H-pyrazol-4-yl)quinazoline-6-sulfonamide] | – | – | IC50 (LdNMT; CPM Assay, IC50 (CI95) LdNMT): 0.33 µM
CCN1CCC(N(C)c2nc(N(C)CCC#N)c3sccc3n2)CC1 [Compound 12, 3-(Methyl(2-(methyl(1-ethylpiperidin-4-yl)amino)thieno[3,2-d]pyrimidin-4-yl)amino)propanenitrile] | >50 µM | 1.05 | –
CN1CCC(N(CCCO)c2nc(N(C)CCC#N)c3ccccc3n2)CC1 [Compound 30, 3-((2-((3-Hydroxypropyl)(1-methylpiperidin-4-yl)amino)quinazolin-4-yl)(methyl)amino)propanenitrile] | – | – | IC50 (LmNMT): 19 µM and 18.8 µM
CN1CCC(N(C)c2nc(N(C)CCC#N)c3ccccc3n2)CC1 [Compound 3, 3-(Methyl(2-(methyl(1-methylpiperidin-4-yl)amino)quinazolin-4-yl)amino)propanenitrile] | >100 µM | 1.04 | –
CN(CCC#N)c1nc(N(C)C2CCNC2)nc2cc(C(C)(C)C)sc12 (stereo not shown) [Compound 53, 3-((6-(tert-Butyl)-2-(methyl(pyrrolidin-3-yl)amino)thieno[3,2-d]pyrimidin-4-yl)(methyl)amino)propanenitrile] | >40 µM | – | –
CN(C)CCCN(C)c1nc(N(C)CCC#N)c2sc(C(C)(C)C)cc2n1 [Compound 51, 3-((6-(tert-Butyl)-2-((3-(dimethylamino)propyl)(methyl)amino)thieno[3,2-d]pyrimidin-4-yl)(methyl)amino)propanenitrile] | 27.3 (24.1-31.0) μM | – | –
CN(CCC#N)c1nc(N(CCCO)C2CCNCC2)nc2ccccc12 [Compound 29, 3-((2-((3-Hydroxypropyl)(piperidin-4-yl)amino)quinazolin-4-yl)(methyl)amino)propanenitrile] | – | – | IC50 (LmNMT): 15 µM and 15.3 µM
CN1CCC(N(C)c2nc(N(C)CCC#N)c3ccccc3n2)C1 (stereo not shown) [Compound 26, 3-(Methyl(2-(methyl(1-methylpyrrolidin-3-yl)amino)quinazolin-4-yl)amino)propanenitrile] | >50 µM | 1.03 | effect on myristoylation [2]: significantly decreased myristoylation in a dose-dependent manner
CN(C)CCCN(C)c1nc(N(C)CCC#N)c2sccc2n1 [Compound 2, 3-((2-((3-(Dimethylamino)propyl)(methyl)amino)thieno[3,2-d]pyrimidin-4-yl)(methyl)amino)propanenitrile] | – | – | IC50 (LdNMT; read-out: CPM Assay, IC50 (CI95) LdNMT): 0.59 µM
CN(CCC#N)c1nc(N(C)C2CCNCC2)nc2ccsc12 [Compound 10, 3-(Methyl(2-(methyl(piperidin-4-yl)amino)thieno[3,2-d]pyrimidin-4-yl)amino)propanenitrile] | >50 µM | 1.05 | –
Cc1nn(C)c(C)c1N(C(F)F)S(=O)(=O)c1c(Cl)cc(CCCC2CCN(C)CC2)cc1Cl [DDD100097] | – | – | EC50 [3]: 2.4 µM; selectivity over HsNMTs (HsNMTs): 10 fold
CN1CCC(N(C)c2nc(N(C)CCC#N)c3sc(C(C)(C)C)cc3n2)CC1 [Compound 50, 3-((6-(tert-Butyl)-2-(methyl(1-methylpiperidin-4-yl)amino)thieno[3,2-d]pyrimidin-4-yl)(methyl)amino)propanenitrile] | – | – | EC50 (L. donovani amastigotes; extracellular L. donovani amastigotes (Table S2), read-out: Ld Amastigotes EC50 (CI05)): 10.1 µM; EC50 (L. donovani amastigotes; intracellular L. donovani amastigotes, read-out: Alamar Blue Assay EC50 (CI95)): 10 µM
CCN(C)c1nc(N(C)C2CCN(C)CC2)nc2ccsc12 [Compound 46, N^4-Ethyl-N^2,N^4-dimethyl-N^2-(1-methylpiperidin-4-yl)thieno[3,2-d]pyrimidine-2,4-diamine] | >50 µM | 1.05 | –
CN(C)CCCN(C)c1nc(N(C)CCC#N)c2cc(Br)ccc2n1 [Compound 56, 3-((6-Bromo-2-((3-(dimethylamino)propyl)(methyl)amino)quinazolin-4-yl)(methyl)amino)propanenitrile] | >40 µM | 1.3 and 1.28 | –
CN(C)CCCN(C)c1nc(N(C)CCCO)c2sccc2n1 [Compound 35, 3-((2-((3-(Dimethylamino)propyl)(methyl)amino)thieno[3,2-d]pyrimidin-4-yl)(methyl)amino)propan-1-ol] | >50 µM | – | –
CN1CCC(N(C)c2nc(N(C)CCC#N)c3sc(C(C)(C)C)cc3n2)C1 (stereo not shown) [Compound 52, 3-((6-(tert-Butyl)-2-(methyl(1-methylpyrrolidin-3-yl)amino)thieno[3,2-d]pyrimidin-4-yl)(methyl)amino)propanenitrile] | >40 µM | – | –
